According to patent US9708312B2, “Dihydropyrimidinoisoquinolinones and pharmaceutical compositions thereof for the treatment of inflammatory disorders (GPR84 antagonists)” (GALAPAGOS NV, priority 2012, dated 2017):

Legend:
GPR84 [1] = target: T1, GPR84 (Homo sapiens, UniProt Q9NQS5); settings: literature reports; cited from earlier work
T1 construct: expressed in transfected cells

[2] = tested on: RAW264.7 murine macrophage-like cells; settings: RAW264.7 cells stimulated with LPS; cited from earlier work
human neutrophils = assay: Human neutrophil migration assay (embelin-induced chemotaxis); type: cell-based; settings: Neutrophil; neutrophils from human buffy coats; embelin at EC80
Protocol: 2.1. Human Neutrophil Migration Assay
The effect of agonists or antagonists for GPR84 can therefore be assayed in a neutrophil migration test. In the neutrophil migration assay, neutrophils, freshly isolated from buffy coats from human volunteers, are treated with a compound for 30 min Subsequently, the neutrophils are transferred to the upper wells of a Corning HTS transwell 96 permeable support system, of which the lower wells are filled with a embelin solution at EC80 (concentration which gives 80% of the activity of GPR84). After 1 h of incubation, migration of the neutrophils towards embelin in the lower compartment can be quantified by measuring the ATP-content of the lower wells using the ATPlite luminescence ATP detection assay system (Perkin Elmer, Cat. No.: 436110).
2.1.1 Isolation of Neutrophils from Human Buffy Coat
A human buffy coat is diluted with an equal volume of ice cold DPBS. 20 mL of the diluted buffy coat is gently mixed with 4 mL of ACD buffer (140 mM citric acid, 200 mM sodium citrate and 220 mM dextrose). Then, 12 mL of the 6% dextran/0.9% NaCl solution (15 g dextran T2000 and 2.25 g NaCl dissolved in 250 mL H2O) is added to the mixture and the samples are inverted gently up to 20 times. The total volume was transferred to a new recipient and incubated at room temperature for 1 h for complete separation of the two phases to occur. The yellowish supernatant is then transferred to a clean centrifugation tube and centrifuged for 12 min at 1300 rpm and 4° C. After centrifugation, the supernatant is discarded and the remaining cell pellet is rapidly resuspended in 12 mL of ice-cold H2O for red blood cell lysis to occur. After 20 seconds, 4 mL of ice-cold 0.6 M KCl is added. Samples are mixed carefully and centrifuged for 6 min at 1300 rpm, 4° C. The supernatant is discarded and the red blood cell lysis procedure is repeated one more time. Subsequently, the cell pellet is resuspended in 4 mL of DPBS and layered over 5 mL of Lymphoprep (Nycomed Pharma, Cat. No.: 1114545) in a 15 mL centrifuge tube. After centrifugation for 12 min at 1300 rpm, 4° C., the supernatant is removed and the cell pellet, containing the neutrophils, is resuspended in 25 mL chemotaxis buffer (RPMI 1640 medium, supplemented with 10 mM HEPES; freshly made for each experiment)
A cell suspension of 8.9×10^6 cells per milliliter is prepared. 20 μL of compound solution in chemotaxis buffer is added to 180 μL cell suspension. The mixture is incubated at 37° C. for 30 min with intermediate resuspension of the cells after 15 min Following this, 70 μL cell suspension is transferred to the upper compartment of a Corning HTS transwell 96 permeable support system with 5.0 μm pore size polycarbonate membrane (Corning, Cat. No.: 3387). The receiver well of the transwell system is then filled with 200 μL chemotaxis buffer containing compound and chemotactic agent (embelin). After incubation at 37° C. in 5% CO2 for 1 h, the upper plate of the transwell system is removed and the cell suspension in the receiver plate is transferred to a 96-well V-bottom plate. 50 μL of DPBS is added to the receiver plate to prevent remaining cells from drying out. The V-bottom plate is centrifuged for 6 min at 1500 rpm. The supernatant is removed and the cells are resuspended in 50 μL DPBS. The cells are then transferred back to the receiver plate of the transwell system. After this, 100 μL ATPlite solution (Perkin Elmer, Cat. No: 436110) was added to the cells. The plate is incubated for 10 min in the dark, while shaking. […] of cell lysate is then transferred to a white 96-well plate and luminescence is measured. The detected luminescent signal is considered as linearely related to the number of cells having migrated from the upper well to the receiver well.

GPR84 [3] = target: T1, GPR84; assay: GPR84 [35S]GTPγS binding assay, Tris buffer (alternative); type: biochemical; settings: 3,3′ di indolylmethane at EC80, membranes from stable cell line over expressing GPR84, read-out: Alternative GPR84 assay GTPγS IC50 (GPR84-2)
Protocol: 1.1. Cell Based Assay: GTp-γ S Binding Assay.
The following assay can be used for determination of GPR84 activation. The [^35S]GTPγS binding assay measures the level of G protein activation following agonist occupation of a GPCR, by determining the binding of the non-hydrolysable analog [^35S]GTPγS to Gα subunits.
Alternatively, the assay is performed in a 96 well plate where the following reagents are added. First 50 μL compound is added into the assay plate, followed by addition of 20 μL 3,3′ di indolylmethane at EC80 concentration (concentration which gives 80% of the activity of GPR84). In a last step, 30 μL of a mixture consisting of membranes-GTPγS-SpA beads is added [mixture consists of 20 μg/well membranes derived from stable cell line over expressing GPR84 (membranes are pre-incubated with 0.1 μM GDP for 15 min at 4° C.), 0.1 nM [^35S]GTPγS (Perkin Elmer, NEG030) and 0.5 mg/well PVT-WGA SpA beads (Perkin Elmer, RPNQ0001)]. All components are diluted in assay buffer containing 20 mM Tris pH 7.5; 5 mM MgCl2; 250 mM NaCl; 0.05% BSA; 75 ug/mL saponin Reactions are incubated for 90 min at room temperature followed by centrifugation at 2000 rpm during 15 min. Plates are read on a Topcount reader (Perkin Elmer) immediately after centrifugation (readout time, 1 min/well).

T1 sequence (Q9NQS5 whole entry): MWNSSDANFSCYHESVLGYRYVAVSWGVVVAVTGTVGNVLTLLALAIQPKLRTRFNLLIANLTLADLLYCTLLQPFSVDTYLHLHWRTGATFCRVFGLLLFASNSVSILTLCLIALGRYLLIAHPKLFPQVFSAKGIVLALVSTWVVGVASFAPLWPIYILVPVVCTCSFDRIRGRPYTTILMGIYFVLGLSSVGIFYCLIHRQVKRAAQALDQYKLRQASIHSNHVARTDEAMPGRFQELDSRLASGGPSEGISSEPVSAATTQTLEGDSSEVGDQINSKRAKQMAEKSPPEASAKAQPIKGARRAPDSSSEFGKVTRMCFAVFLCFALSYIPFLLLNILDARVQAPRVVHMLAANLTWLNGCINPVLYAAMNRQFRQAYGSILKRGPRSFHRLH

| Structure (SMILES) | IC50 (human neutrophils) | IC50 (GPR84 [3]) | GPR84 agonist activity (GPR84 [1]) | secretion of interleukin-12 p40 subunit (IL-12 p40) [2] |
| --- | --- | --- | --- | --- |
| c1ccc2c(Cc3c[nH]c4ccccc34)c[nH]c2c1 [3,3′-diindolylmethane] | – | – | some GPR84 agonist activity | – |
| CCCCCCCCNc1cc(=O)[nH]c(=O)[nH]1 [6-n-octylaminouracil] | – | – | some GPR84 agonist activity | – |
| CCCCCCCCCC(=O)O [capric acid] | – | – | – | dose dependently increased |
| COCC#Cc1ccc2c(c1)CCn1c-2cc(OCC2COc3ncccc3O2)nc1=O (centres unmarked) [compound 132, 2-(2,3-dihydro-[1,4]dioxino[2,3-b]pyridin-2-ylmethoxy)-9-(3-methoxy-prop-1-ynyl)-6,7-dihydro-pyrimido[6,1-a]isoquinolin-4-one] | 0.01 to 100 nM | 100 to 500 nM | – | – |
| Cc1cc(COc2ccc3c(c2)CCn2c-3cc(OCC3COc4ncccc4O3)nc2=O)nn1C (centres unmarked) [compound 134, 2-(2,3-Dihydro-[1,4]dioxino[2,3-b]pyridin-2-ylmethoxy)-9-(1,5-dimethyl-1H-pyrazol-3-ylmethoxy)-6,7-dihydro-pyrimido[6,1-a]isoquinolin-4-one] | 0.01 to 100 nM | 0.01 to 100 nM | – | – |
| O=c1nc(OCC2COc3ncccc3O2)cc2n1CCc1cc(C#Cc3ccncc3)ccc1-2 (centres unmarked) [compound 137, 2-(2,3-dihydro-[1,4]dioxino[2,3-b]pyridin-2-ylmethoxy)-9-pyridin-4-ylethynyl-6,7-dihydro-pyrimido[6,1-a]isoquinolin-4-one] | 0.01 to 100 nM | 0.01 to 100 nM | – | – |
| O=c1nc(OCC2COc3ncccc3O2)cc2n1CCc1cc(C#CC3(O)CCCC3)ccc1-2 (centres unmarked) [compound 142, 2-(2,3-Dihydro-[1,4]dioxino[2,3-b]pyridin-2-ylmethoxy)-9-(1-hydroxy-cyclopentylethynyl)-6,7-dihydro-pyrimido[6,1-a]isoquinolin-4-one] | 0.01 to 100 nM | 0.01 to 100 nM | – | – |
| CCCCCCCCCCCC(=O)O [lauric acid] | – | – | – | dose dependently increased |
| CCCCCCCCCCC(=O)O [undecanoic acid] | – | – | – | dose dependently increased |

More lines, main results first:

| IC50 (human neutrophils) | IC50 (GPR84 [3]) | Structure (SMILES) | GPR84 agonist activity (GPR84 [1]) | secretion of interleukin-12 p40 subunit (IL-12 p40) [2] |
| --- | --- | --- | --- | --- |
| 0.01 to 100 nM | 0.01 to 100 nM | COc1ccc(-c2ccc3c(c2)CCn2c-3cc(OCC3COc4ncccc4O3)nc2=O)cn1 (centres unmarked) [compound 118, 2-(2,3-Dihydro-[1,4]dioxino[2,3-b]pyridin-2-ylmethoxy)-9-(6-methoxy-pyridin-3-yl)-6,7-dihydro-pyrimido[6,1-a]isoquinolin-4-one] | – | – |
| 0.01 to 100 nM | 0.01 to 100 nM | O=c1nc(OCC2COc3ncccc3O2)cc2n1CCc1cc(OCc3ccncc3)ccc1-2 (centres unmarked) [compound 122, 2-(2,3-Dihydro-[1,4]dioxino[2,3-b]pyridin-2-ylmethoxy)-9-(pyridin-4-ylmethoxy)-6,7-dihydro-pyrimido[6,1-a]isoquinolin-4-one] | – | – |
| 0.01 to 100 nM | 100 to 500 nM | N#Cc1ccccc1-c1ccc2c(c1)CCn1c-2cc(OCC2COc3ncccc3O2)nc1=O (centres unmarked) [compound 125, 2-[2-(2,3-Dihydro-[1,4]dioxino[2,3-b]pyridin-2-ylmethoxy)-4-oxo-6,7-dihydro-4H-pyrimido[6,1-a]isoquinolin-9-yl]-benzonitrile] | – | – |
| 0.01 to 100 nM | 100 to 500 nM | O=c1nc(OCC2COc3ncccc3O2)cc2n1CCc1cc(C#Cc3cccnc3)ccc1-2 (centres unmarked) [compound 131, 2-(2,3-dihydro-[1,4]dioxino[2,3-b]pyridin-2-ylmethoxy)-9-pyridin-3-ylethynyl-6,7-dihydro-pyrimido[6,1-a]isoquinolin-4-one] | – | – |
| 0.01 to 100 nM | 0.01 to 100 nM | Cc1ccc(-c2ccc3c(c2)CCn2c-3cc(OCC3COc4ncccc4O3)nc2=O)cn1 (centres unmarked) [compound 139, 2-(2,3-dihydro-[1,4]dioxino[2,3-b]pyridin-2-ylmethoxy)-9-(6-methyl-pyridin-3-yl)-6,7-dihydro-pyrimido[6,1-a]isoquinolin-4-one] | – | – |
